Assay results taken from patent publication US11058111B2, “Use of multiple charged cationic compounds derived from primary amines or polyamines for microbial fouling control in a water system” (ECOLAB USA INC., priority 2018, dated 2021).

What was measured:
[1] = test system: biofilm of a mixture of aerobic populations from more than 30 cooling systems in North America; experiment: Biofilm growth inhibition test, similar to the MBEC assay; INT or crystal violet stain of biofilm on well walls; type: cell-based; parameters: key: “−” indicates no detectable growth at the end of test; “+” indicates detectable growth; “+/−” partial growth; “++” more growth; settings: 40-48 hours incubation at 32-35° C.
Text: The microbial and biofilm inhibition test protocols used in this example is similar to the MBEC (Minimum Biofilm Eradication Concentration) assay and American Society for Testing and Materials (ASTM) MBEC-[…]-12 (2011) assay, both of which are commonly used. This test protocol can be used laboratory and field applications. The test protocol can be conducted in a 12-well or 96-well tissue culture plate format. The 12-well plate format is mainly for lab based and detailed screening/studies. The 96-well format is developed mainly for field applications. The test protocol starts with the preparation of the water sample to be tested by mixing the water from different water systems or artificial water with known bacterial populations with limited nutrient (16% of medium, 2% (w/w) casitone, 0.8% (w/w) yeast extracts, 4% (v/v) glycerol, 4 ppm FeCl3) and the solution of the treatment chemical. This step usually generates a series of the treated water samples with different concentrations for the treatment chemical(s) (from about 0.8 ppm to 1,000 ppm). Next, 200 μL of each treated water samples were transferred to a 96 well plate or 12 well plate. Usually, six replicates would be tested for each concentration of the treatment chemical(s) and controls with no treatment chemical and no bacterial were also placed in the plate(s). After the treated samples were properly plated, the plate(s) are placed on a slow rotary shaker in a humidity-controlled environment on at 32-35° C. for 40-48 hours of incubation. After this step, the bacterial cultures in the plate(s) were carefully poured out and 250 ul of dyes (350 ppm 2-(4-Iodophenyl)-3-(4-nitrophenyl)-5-phenyltetrazolium chloride (INT) or 2,000 ppm crystal violent (CV) for biofilm matrix stain) was added to each well for activity stain in biofilms on well walls. After 10-15 minutes, pour out the dye and gently wash the wells with deionized water until no colored water is running of the plate(s). After drying the plate(s), each well was inspected visually for staining and results are recorded. Alternatively, use 300 uL ethanol to extract CV dyes and transfer 200 uL of ethanol to a new plate for microtiter plate recording at 590 nm. […] The bacteria used in this example for microbial and/or biofilm growth inhibition test protocols comprised a mixture of aerobic populations from more than 30 cooling systems in North America. The specific species were not specifically identified. Those species were grown on […] agar.

[2] = test system: mixture of aerobic populations from more than 30 cooling systems in North America; experiment: Bacterial growth inhibition test, similar to the MBEC assay; growth recorded visually or by turbidity at 650 nm; type: cell-based; parameters: key: “−” indicates no detectable growth at the end of test; “+” indicates detectable growth; “+/−” partial growth; “++” more growth; settings: 40-48 hours incubation at 32-35° C.
Text: The microbial and biofilm inhibition test protocols used in this example is similar to the MBEC (Minimum Biofilm Eradication Concentration) assay and American Society for Testing and Materials (ASTM) MBEC-[…]-12 (2011) assay, both of which are commonly used. This test protocol can be used laboratory and field applications. The test protocol can be conducted in a 12-well or 96-well tissue culture plate format. The 12-well plate format is mainly for lab based and detailed screening/studies. The 96-well format is developed mainly for field applications. The test protocol starts with the preparation of the water sample to be tested by mixing the water from different water systems or artificial water with known bacterial populations with limited nutrient (16% of medium, 2% (w/w) casitone, 0.8% (w/w) yeast extracts, 4% (v/v) glycerol, 4 ppm FeCl3) and the solution of the treatment chemical. This step usually generates a series of the treated water samples with different concentrations for the treatment chemical(s) (from about 0.8 ppm to 1,000 ppm). Next, 200 μL of each treated water samples were transferred to a 96 well plate or 12 well plate. Usually, six replicates would be tested for each concentration of the treatment chemical(s) and controls with no treatment chemical and no bacterial were also placed in the plate(s). After the treated samples were properly plated, the plate(s) are placed on a slow rotary shaker in a humidity-controlled environment on at 32-35° C. for 40-48 hours of incubation. After the incubation, the bacterial growth in each well of the plate was recorded either visually or by a microplate turbidity reader at 650 nm to determine the minimum bacterial growth inhibition concentration for a treatment chemical. The bacteria used in this example for microbial and/or biofilm growth inhibition test protocols comprised a mixture of aerobic populations from more than 30 cooling systems in North America. The specific species were not specifically identified. Those species were grown on […] agar.

Compound | Biofilm growth ([1]; test concentration 0.8 ppm) | Biofilm growth ([1]; test concentration 1.5 ppm) | Biofilm growth ([1]; test concentration 3 ppm) | Biofilm growth ([1]; test concentration 6 ppm) | Biofilm growth ([1]; test concentration 12 ppm) | Biofilm growth ([1]; test concentration 25 ppm) | Biofilm growth ([1]; test concentration 50 ppm) | Biofilm growth ([1]; test concentration 63 ppm) | Biofilm growth ([1]; test concentration 125 ppm) | Biofilm growth ([1]; test concentration 250 ppm) | Biofilm growth ([1]; test concentration 500 ppm) | Biofilm growth ([1]; test concentration 1000 ppm) | Bacterial growth ([2]; test concentration 0.8 ppm) | Bacterial growth ([2]; test concentration 1.5 ppm) | Bacterial growth ([2]; test concentration 3 ppm) | Bacterial growth ([2]; test concentration 6 ppm) | Bacterial growth ([2]; test concentration 12 ppm) | Bacterial growth ([2]; test concentration 25 ppm) | Bacterial growth ([2]; test concentration 50 ppm) | Bacterial growth ([2]; test concentration 63 ppm) | other results
CCCCCCCCCCCCN(CCC(=O)NCCC[N+](C)(C)C)CCC(=O)NCCC[N+](C)(C)C.[Cl-].[Cl-] [Compound 1, 3,3′-((3,3′-(dodecylazanediyl)bis(propanoyl))bis(azanediyl))bis(N,N,N-trimethylpropan-1-aminium) chloride] | + | + | + | + | + | + | + | + | + | +/− | − | − | + | + | + | + | + | + | + | + | Bacterial growth ([2]; test concentration 125 ppm): +; Bacterial growth ([2]; test concentration 250 ppm): +; Bacterial growth ([2]; test concentration 500 ppm): +; Bacterial growth ([2]; test concentration 1000 ppm): −
CCCCCCCCCCCCCCCCN(CCC(=O)NCCC[N+](C)(C)C)CCC(=O)NCCC[N+](C)(C)C.[Cl-].[Cl-] [Compound 2, 3,3′-((3,3′-(hexadecylazanediyl)bis(propanoyl))bis(azanediyl))bis(N,N,N-trimethylpropan-1-aminium) chloride] | + | + | + | + | + | +/− | − | − | − | − | − | − | + | + | + | + | + | + | +/− | − | Bacterial growth ([2]; test concentration 125 ppm): −; Bacterial growth ([2]; test concentration 250 ppm): −; Bacterial growth ([2]; test concentration 500 ppm): −; Bacterial growth ([2]; test concentration 1000 ppm): −
CCCCCCCCC=CCCCCCCCCN(CCC(=O)NCCC[N+](C)(C)C)CCC(=O)NCCC[N+](C)(C)C.[Cl-].[Cl-] [Compound 3, 3,3′-((3,3′-(octadec-9-en-1-ylazanediyl)bis(propanoyl))bis(azanediyl)) bis(N,N,N-trimethylpropan-1-aminium) chloride] | + | + | + | + | +/− | +/− | +/− | − | − | − | − | _ | + | + | + | + | + | + | +/− | +/− | Bacterial growth ([2]; test concentration 125 ppm): −; Bacterial growth ([2]; test concentration 250 ppm): −; Bacterial growth ([2]; test concentration 500 ppm): −; Bacterial growth ([2]; test concentration 1000 ppm): −
3,3′-((3,3′-(octylazanediyl)bis(propanoyl))bis(azanediyl))bis(N,N,N-trimethylpropan-1-aminium) chloride [Compound 4] | + | + | +/− | − | − | − | − | − | − | − | − | − | + | + | + | ++ | +/− | − | − | − | Bacterial growth ([2]; test concentration 125 ppm): −; Bacterial growth ([2]; test concentration 250 ppm): −; Bacterial growth ([2]; test concentration 500 ppm): −; Bacterial growth ([2]; test concentration 1000 ppm): −
